From PubChem BioAssay (NCI)
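Compound exposure: 48 hours, 5 concentrations, 96-well plates. At the TGI there is no net growth.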

Experiments:
Experiment in all cases: DTP human tumour cell line panel, 48 h
RXF 393 renal = test system: RXF 393 renal
DLD-1 colon = test system: DLD-1 colon
CCRF-CEM leukemia = test system: CCRF-CEM leukemia
MDA-MB-435 = test system: MDA-MB-435
SNB-75 CNS = test system: SNB-75 CNS
K-562 leukemia = test system: K-562 leukemia
OVCAR-3 ovarian = test system: OVCAR-3 ovarian
HCC-2998 colon = test system: HCC-2998 colon
COLO 205 colon = test system: COLO 205 colon
NCI-H460 lung = test system: NCI-H460 lung
SF-268 CNS = test system: SF-268 CNS
TK-10 renal = test system: TK-10 renal
ACHN renal = test system: ACHN renal
SNB-19 CNS = test system: SNB-19 CNS
LOX IMVI melanoma = test system: LOX IMVI melanoma
HOP-62 NSCLC = test system: HOP-62 NSCLC
SN12C renal = test system: SN12C renal
RPMI-8226 leukemia = test system: RPMI-8226 leukemia
DU-145 prostate = test system: DU-145 prostate
SK-MEL-5 melanoma = test system: SK-MEL-5 melanoma
HOP-18 NSCLC = test system: HOP-18 NSCLC
786-0 renal = test system: 786-0 renal
PC-3 prostate = test system: PC-3 prostate
SW-620 colon = test system: SW-620 colon
HL-60(TB) leukemia = test system: HL-60(TB) leukemia
U251 CNS = test system: U251 CNS
SR leukemia = test system: SR leukemia
NCI/ADR-RES ovarian = test system: NCI/ADR-RES ovarian
UO-31 renal = test system: UO-31 renal
CAKI-1 renal = test system: CAKI-1 renal
A498 renal = test system: A498 renal
NCI-H226 lung = test system: NCI-H226 lung
SNB-78 CNS = test system: SNB-78 CNS
DMS 273 small cell lung = test system: DMS 273 small cell lung
HCT-15 colon = test system: HCT-15 colon
MDA-MB-231 breast = test system: MDA-MB-231 breast
SK-MEL-2 melanoma = test system: SK-MEL-2 melanoma
SF-539 CNS = test system: SF-539 CNS
MDA-N = test system: MDA-N
EKVX NSCLC = test system: EKVX NSCLC
KM12 colon = test system: KM12 colon
SK-MEL-28 melanoma = test system: SK-MEL-28 melanoma
M14 melanoma = test system: M14 melanoma
SK-OV-3 ovarian = test system: SK-OV-3 ovarian
OVCAR-4 ovarian = test system: OVCAR-4 ovarian
A549 NSCLC = test system: A549 NSCLC
IGROV1 ovarian = test system: IGROV1 ovarian
HOP-92 NSCLC = test system: HOP-92 NSCLC
SF-295 CNS = test system: SF-295 CNS
M19-MEL melanoma = test system: M19-MEL melanoma
LXFL 529 NSCLC = test system: LXFL 529 NSCLC
MALME-3M melanoma = test system: MALME-3M melanoma
KM20L2 colon = test system: KM20L2 colon
HCT-116 colon = test system: HCT-116 colon
BT-549 breast = test system: BT-549 breast
DMS 114 small cell lung = test system: DMS 114 small cell lung
MOLT-4 leukemia = test system: MOLT-4 leukemia
HT29 colon = test system: HT29 colon
NCI-H522 lung = test system: NCI-H522 lung
UACC-257 melanoma = test system: UACC-257 melanoma
OVCAR-8 ovarian = test system: OVCAR-8 ovarian
OVCAR-5 ovarian = test system: OVCAR-5 ovarian
UACC-62 melanoma = test system: UACC-62 melanoma
NCI-H23 lung = test system: NCI-H23 lung
XF 498 CNS = test system: XF 498 CNS
HS 578T breast = test system: HS 578T breast
T-47D breast = test system: T-47D breast
MCF7 breast = test system: MCF7 breast

Measured: TGI

O=Cc1ccc(-c2ccc(-c3ccc(C=O)s3)o2)s1
7.33 µM: TK-10 renal
0.732 µM: A498 renal
2.65 µM: RXF 393 renal
35.8 µM: IGROV1 ovarian
29.5 µM: NCI-H522 lung
0.324 µM: LXFL 529 NSCLC
16.2 µM: UACC-257 melanoma
2.46 µM: NCI-H226 lung
5.89 µM: OVCAR-3 ovarian
51.5 µM: HCC-2998 colon
> 50.8 µM: U251 CNS
0.441 µM: UACC-62 melanoma
11 µM: OVCAR-5 ovarian
> 90 µM: EKVX NSCLC
78.8 µM: SNB-75 CNS
37 µM: COLO 205 colon
1.31 µM: CAKI-1 renal
not listed: XF 498 CNS | HS 578T breast | T-47D breast | MCF7 breast
> 100 µM: all other assays above

Cc1ccc(C(=O)C(C)N)cc1 (stereo unspecified)
not listed: MDA-MB-435 | DU-145 prostate | PC-3 prostate | NCI/ADR-RES ovarian | MDA-MB-231 breast | MDA-N | M19-MEL melanoma | BT-549 breast | HS 578T breast | T-47D breast | MCF7 breast
> 100 µM: all other assays above

COC(OC)c1cccc2c1C1(O)CCC3(CC21)OCCCCO3 (stereo unspecified)
not listed: MDA-MB-435 | DU-145 prostate | PC-3 prostate | SW-620 colon | NCI/ADR-RES ovarian | MDA-MB-231 breast | MDA-N | EKVX NSCLC | HOP-92 NSCLC | BT-549 breast | XF 498 CNS | HS 578T breast | T-47D breast | MCF7 breast
> 100 µM: all other assays above

CC(=O)OC12c3ccccc3C1CCCCCC21OCCCO1 (stereo unspecified)
not listed: MDA-MB-435 | DU-145 prostate | HOP-18 NSCLC | PC-3 prostate | SW-620 colon | NCI/ADR-RES ovarian | MDA-MB-231 breast | MDA-N | EKVX NSCLC | HOP-92 NSCLC | MALME-3M melanoma | BT-549 breast | UACC-257 melanoma | XF 498 CNS | HS 578T breast | T-47D breast | MCF7 breast
> 100 µM: all other assays above

CCCCCCCCCCCC(=O)OCC1OC(n2cc(F)c(=O)[nH]c2=O)C(N)C(OC(=O)CCCCCCCCCCC)C1O (stereo unspecified)
98.8 µM: HOP-92 NSCLC
30.5 µM: SK-MEL-5 melanoma
not listed: DLD-1 colon | MDA-MB-435 | DU-145 prostate | HOP-18 NSCLC | PC-3 prostate | NCI/ADR-RES ovarian | NCI-H226 lung | MDA-MB-231 breast | MDA-N | IGROV1 ovarian | BT-549 breast | OVCAR-5 ovarian | XF 498 CNS | HS 578T breast | T-47D breast | MCF7 breast
> 100 µM: all other assays above

CC(C)CCC1(O)O[C@H]2C[C@H]3[C@@H]4CCC5CC(=O)C=C[C@]5(C)[C@H]4CC[C@]3(C)[C@H]2[C@@H]1C (stereo partly specified)
26.7 µM: SK-MEL-5 melanoma
30.5 µM: OVCAR-8 ovarian
33.1 µM: NCI/ADR-RES ovarian
29.8 µM: M14 melanoma
28.4 µM: HOP-62 NSCLC
24.3 µM: OVCAR-4 ovarian
3.8 µM: NCI-H522 lung
17.4 µM: PC-3 prostate
28 µM: SNB-75 CNS | SN12C renal | UACC-62 melanoma
7.31 µM: HS 578T breast
17.7 µM: HL-60(TB) leukemia
16 µM: HOP-92 NSCLC
27 µM: MDA-N
22.6 µM: SR leukemia
26.5 µM: KM12 colon
30.3 µM: UO-31 renal | IGROV1 ovarian
25 µM: SK-MEL-28 melanoma
26.9 µM: HT29 colon
34.7 µM: EKVX NSCLC
26.6 µM: ACHN renal
32.9 µM: SK-OV-3 ovarian
25.6 µM: T-47D breast
10.3 µM: CCRF-CEM leukemia
28.3 µM: UACC-257 melanoma
24 µM: SF-295 CNS
28.1 µM: CAKI-1 renal
28.5 µM: A498 renal
25.4 µM: 786-0 renal
5.86 µM: HCC-2998 colon
19.3 µM: K-562 leukemia | HCT-116 colon
20.3 µM: MCF7 breast
24.5 µM: MDA-MB-435
22.2 µM: NCI-H460 lung
21.4 µM: RPMI-8226 leukemia
26.3 µM: LOX IMVI melanoma
7.15 µM: MOLT-4 leukemia
26.4 µM: SW-620 colon
27.8 µM: COLO 205 colon
31.7 µM: SF-539 CNS
26.2 µM: OVCAR-5 ovarian
23.7 µM: U251 CNS
31.3 µM: SNB-19 CNS
27.3 µM: BT-549 breast
14.8 µM: NCI-H226 lung | NCI-H23 lung
29.5 µM: MALME-3M melanoma
24.2 µM: RXF 393 renal | TK-10 renal
22.9 µM: OVCAR-3 ovarian
28.2 µM: SF-268 CNS | DU-145 prostate | MDA-MB-231 breast | A549 NSCLC
29.6 µM: SK-MEL-2 melanoma
23.4 µM: HCT-15 colon

Cc1cc(N(CCC#N)CCC#N)ccc1/C(N=Nc1cccc([N+](=O)[O-])c1)=N/NC(=O)c1cc(Cl)ccc1O
76.3 µM: HOP-92 NSCLC
45 µM: SR leukemia
38.8 µM: COLO 205 colon
63.3 µM: SK-MEL-2 melanoma
49.2 µM: A498 renal
64.1 µM: NCI-H23 lung
72.2 µM: RXF 393 renal
90.2 µM: NCI-H522 lung
53.5 µM: MDA-MB-231 breast
71 µM: T-47D breast
32.1 µM: MOLT-4 leukemia
92.7 µM: BT-549 breast
49.3 µM: LOX IMVI melanoma
32.8 µM: IGROV1 ovarian
80.5 µM: HCT-15 colon
70.8 µM: UO-31 renal
93.6 µM: EKVX NSCLC
93.4 µM: HCC-2998 colon
37.8 µM: HL-60(TB) leukemia
39.3 µM: SK-MEL-5 melanoma
94.1 µM: UACC-257 melanoma
92.2 µM: OVCAR-4 ovarian
40.2 µM: UACC-62 melanoma
59.5 µM: OVCAR-3 ovarian
26.7 µM: CCRF-CEM leukemia
82.6 µM: SNB-75 CNS
56.7 µM: CAKI-1 renal
88.6 µM: NCI-H460 lung
47.5 µM: RPMI-8226 leukemia
not listed: DLD-1 colon | HOP-18 NSCLC | SNB-78 CNS | DMS 273 small cell lung | M19-MEL melanoma | LXFL 529 NSCLC | KM20L2 colon | DMS 114 small cell lung | XF 498 CNS
> 100 µM: all other assays above
